# Experiments:
# [1] = Tolerability of oral dosing schedules in Abcb1a/b;Abcg2-/- mice; type: in vivo
# [2] = tested on: orthotopic E98 GBM tumors; test: Orthotopic E98 GBM xenograft efficacy in Abcb1a/b;Abcg2-/- mice; type: in vivo
# Experimental: Orthotopic GBM tumors were induced in Abcb1a/b; Abcg2^−/− mice by stereotactic injection of E98 cells expressing firefly luciferase (200,000 cells in 2 µL HBSS (Life Technologies) at an injection speed of 1 µL/min) at 2 mm lateral, 1 mm anterior and 3 mm ventral to the bregma. Tumor growth was monitored using bioluminescence imaging by injecting D-luciferin (150 mg/kg i.p.; Promega, Madison, WI) and subsequently imaging mice on an IVIS Spectrum Imaging System (PerkinElmer, Waltham, MA). Survival was monitored daily and the humane endpoint was defined as body weight loss exceeding 20%. Time-to-recurrence was defined as the number of days elapsed until the tumor regained its pre-treatment size. Tumors were treated with CT-guided radiotherapy (2–3.5 Gy per fraction) using an X-RAD 225Cx system (Precision X-Ray, North Branford, CT), temozolomide (10 mg/kg p.o. freshly prepared from powder in an aqueous solution containing 10% v/v ethanol), NTRC0066-0 (20, 10 or 5 mg/kg p.o. in an aqueous solution containing 10% v/v DMSO and 10% v/v Cremophor EL (Life Technologies)) or different combinations thereof, as described per experiment in the Figure legends.
# [3] = tested on: GBM cells; test: Incucyte caspase-3/7 apoptosis assay; type: cell-based, human; conditions: three serum-cultured GBM cell lines, increasing concentrations
# Experimental: For the apoptosis assay, cells were plated in a 96-wells plate at low cell densities (500–1000 cells/well) and allowed to adhere overnight under standard culture conditions (37 °C, 5% CO₂). After 24 h, cells were exposed to different concentrations of NTRC0066-0. Apoptosis was measured using the Incucyte® Caspase-3/7 Dye for Apoptosis (Sartorius AG, Göttingen, Germany), which was added at a final concentration of 2.5 µM. As a positive control for the induction of Caspase 3/7-mediated apoptosis, cells were treated with a combination of S63845 and navitoclax (final concentrations 3 µM and 1.5 µM, respectively). Apoptotic cell death was assessed in real time with the Incucyte® S3 system (Sartorius AG). The Incucyte® was configured to capture phase-contrast images using a 10x objective lens. Data were collected and analyzed using the Incucyte® S3 software. Fluorescence signal confluence was quantified and normalized to the total phase-contrast confluence in each well to take variations in cell density into account. Curves were plotted using GraphPad Prism v10.3 (GraphPad Software).
# [4] = tested on: MELpT-KNL1; test: MELpT-KNL1 foci in E98 tumors (target inhibition); type: in vivo, mice; conditions: last day of 5/10 mg/kg b.i.d.x7d schedule
# Experimental: Mouse heads were fixed in 4% (v/v) formaldehyde and 5% (v/v) glacial acetic acid overnight, and subsequently decalcified in 6.5% (v/v) formic acid at 37 °C for 4 days. Decalcified tissues were paraffin embedded and cut into 4 μm coronal sections that were stained with hematoxylin and eosin (H&E), and for human Vimentin (1:4,000; M0725; DakoCytomation; Glostrup, Denmark), P-gp (1:200; 13978; Cell Signaling Technology; Danvers, MA), BCRP (1:400; ab24115; Abcam; Cambridge, UK), mouse IgG (K4001, Dako) and MELpT-KNL1 (1:50; as described previously). Sections were imaged and processed using an Aperio AT2 system and ImageScope software (v12; both Leica). MELpT-KNL1 foci were imaged using an Axio Observer Z1 system (Carl Zeiss AG; Oberkochen, Germany).
# [5] = E98 tumors, 5/10 mg/kg b.i.d.x7d monotherapy
# [6] = adjuvant: 5/10 mg/kg b.i.d.x7d after RT + TMZ vs RT + TMZ alone
# [7] = recurrent E98 tumors after TMZ + RT, 20 mg/kg q.2d.x11d second-line
# [8] = therapy-naive E98 tumors, 20 mg/kg q.2d.x11d monotherapy
smiles,measurement,setting,value
CCc1cccc(CC)c1NC(=O)c1ccn2c1CCc1cnc(Nc3ccc(N4CCN(C)CC4)cc3OC)nc1-2 [NTRC 0066-0],Tolerability of schedule,"[1]; 5 mg/kg p.o. morning + 10 mg/kg p.o. about 8 h later, 7 consecutive days",could safely administer
same,Tolerability of schedule,[1]; 20 mg/kg p.o. every other day for 11 days (q.2d.x11d),could safely be given
same,Survival,[2]; [5],did not observe any delay in tumor growth (Fig. 4H) or survival
same,Tumor growth,[2]; [5],did not observe any delay in tumor growth
same,Survival,[2]; [6],not affected
same,Time-to-recurrence,[2]; [6],not different between treatment groups
same,Tumor growth,[2]; adjuvant: 5/10 mg/kg b.i.d.x7d from day 3 after RT + TMZ (2 Gy + 10 mg/kg q.d.x2d) vs RT + TMZ alone,could not observe any effects on tumor growth
same,Animals with tumor growth delay,[2]; [7],2 out of 7
same,Long-term survivors,[2]; [7],one long-term survivor
same,Survival,[2]; [8],did not result in reduced tumor growth (Fig. 4A) or improved survival
same,Tumor growth,[2]; [8],did not result in reduced tumor growth
same,Induction of apoptosis (caspase 3/7 activation),[3],did not induce apoptosis
same,Duration of reduction in MELpT-KNL1 foci in pro-/metaphase cells,[4],at least 24 h
